The record followed here is ChEMBL document CHEMBL3813660, “Kinetic and X-ray crystallographic investigations of substituted 2-thio-6-oxo-1,6-dihydropyrimidine-benzenesulfonamides acting as carbonic anhydrase inhibitors” (Bioorg Med Chem, 2016).

Assay [1] deals with Carbonic anhydrase 12 (Homo sapiens, UniProt O43570). Briefly: Inhibition of human carbonic anhydrase 12 preincubated for 6 hrs at 4 degC measured for 10 to 100 secs by stopped-flow carbon dioxide hydration assay.
In assay [2] the target is Carbonic anhydrase 1 (Homo sapiens, UniProt P00915). Put plainly: Inhibition of human carbonic anhydrase 1 preincubated for 6 hrs at 4 degC measured for 10 to 100 secs by stopped-flow carbon dioxide hydration assay.
Carbonic anhydrase 1, sequence (P00915 whole entry): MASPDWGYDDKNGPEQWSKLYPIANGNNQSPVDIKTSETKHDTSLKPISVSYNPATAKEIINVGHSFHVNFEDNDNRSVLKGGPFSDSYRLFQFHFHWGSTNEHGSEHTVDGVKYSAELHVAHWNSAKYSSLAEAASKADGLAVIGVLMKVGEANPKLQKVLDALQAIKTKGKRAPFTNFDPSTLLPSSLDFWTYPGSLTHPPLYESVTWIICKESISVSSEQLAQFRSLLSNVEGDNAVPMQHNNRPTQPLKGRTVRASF
The target of assay [3] is Carbonic anhydrase 2 (Homo sapiens, UniProt P00918). Briefly: Inhibition of human carbonic anhydrase 2 preincubated for 6 hrs at 4 degC measured for 10 to 100 secs by stopped-flow carbon dioxide hydration assay.
Assay [4] addresses Carbonic anhydrase 9 (Homo sapiens, UniProt Q16790). Put plainly: Inhibition of human carbonic anhydrase 9 catalytic domain preincubated for 6 hrs at 4 degC measured for 10 to 100 secs by stopped-flow carbon dioxide hydration assay.

Carbonic anhydrase 12, sequence (O43570 whole entry): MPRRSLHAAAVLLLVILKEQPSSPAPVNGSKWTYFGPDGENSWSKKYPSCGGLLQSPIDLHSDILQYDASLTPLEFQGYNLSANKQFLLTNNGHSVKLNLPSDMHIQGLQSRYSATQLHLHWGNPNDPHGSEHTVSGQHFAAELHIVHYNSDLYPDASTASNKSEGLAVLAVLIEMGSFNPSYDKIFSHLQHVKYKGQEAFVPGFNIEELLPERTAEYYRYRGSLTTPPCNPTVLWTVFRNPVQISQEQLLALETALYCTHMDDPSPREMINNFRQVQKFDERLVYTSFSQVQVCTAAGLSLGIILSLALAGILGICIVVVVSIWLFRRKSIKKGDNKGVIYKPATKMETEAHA

Take `CC(Sc1nc(-c2ccc(Cl)cc2)c(C#N)c(=O)[nH]1)C(=O)Nc1ccc(S(N)(=O)=O)cc1` (stereo not given): the Ki in assay [1] is 9.2 nM; in assay [2], 83 nM; in assay [3], 5 nM.
For `CC(Sc1nc(-c2ccc(Cl)c(Cl)c2)c(C#N)c(=O)[nH]1)C(=O)Nc1ccc(S(N)(=O)=O)cc1` (stereo not given), the Ki in assay [4] came to 19 nM; in assay [1] it was 7.8 nM; in assay [2], 48 nM; in assay [3], 5.1 nM.
Take `CC(Sc1nc(-c2ccc(Cl)c(F)c2)c(C#N)c(=O)[nH]1)C(=O)Nc1ccc(S(N)(=O)=O)cc1` (stereo not given): the Ki in assay [4] amounted to 37 nM; in assay [1] it was 9.1 nM; in assay [2], 34 nM; in assay [3], 6.1 nM.
Taken in the same sequence, the figures for `CCC(Sc1nc(-c2cccc(OC)c2)c(C#N)c(=O)[nH]1)C(=O)Nc1ccc(S(N)(=O)=O)cc1` (stereo not given) were 24 nM, 24 nM, 32 nM and 6.4 nM.

Broadly, the Ki is a measure of affinity in units of concentration, obtained from inhibition or displacement. A lower Ki goes with tighter binding.
